Data reported in ChEMBL document CHEMBL1201862, “PubChem BioAssay data set” (2004).
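Method: 48-hour compound exposure of cells in 96-well plates, five concentrations, linear interpolation of endpoints. The concentration for 50% growth inhibition is given as GI50.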 The source made the active and inactive calls. Cut-off read from the data, not from the text of the source: active = GI50 up to about 1.1 µM and inactive = higher.

Experiments:
Assay in all cases: DTP human tumour cell line panel, 48 h
[1] = tested on: KM12
[2] = tested on: A549
[3] = tested on: NCI-H460
[4] = tested on: NCI-H522
[5] = tested on: SW-620
[6] = tested on: MCF7
[7] = tested on: RXF 393
[8] = tested on: MOLT-4
[9] = tested on: M14
[10] = tested on: MDA-MB-435
[11] = tested on: EKVX
[12] = tested on: RPMI-8226
[13] = tested on: HCC 2998
[14] = tested on: HCT-116
[15] = tested on: SK-OV-3
[16] = tested on: HT-29
[17] = tested on: SF-539
[18] = tested on: UO-31
[19] = tested on: U-251
[20] = tested on: HL-60

Row | Structure (SMILES) | GI50 [1] | GI50 [2] | GI50 [3] | GI50 [4] | GI50 [5] | GI50 [6] | GI50 [7] | GI50 [8] | GI50 [9] | GI50 [10] | GI50 [11] | GI50 [12] | GI50 [13] | GI50 [14] | GI50 [15] | GI50 [16] | GI50 [17] | GI50 [18] | GI50 [19] | GI50 [20]
1 | CCOC1OCCCC1Br (configuration not stated) | > 100 µM (inactive) | > 100 µM (inactive) | > 100 µM (inactive) | > 100 µM (inactive) | > 100 µM (inactive) | > 100 µM (inactive) | > 100 µM (inactive) | > 100 µM (inactive) | > 100 µM (inactive) | > 100 µM (inactive) | > 100 µM (inactive) | > 100 µM (inactive) | > 100 µM (inactive) | > 100 µM (inactive) | > 100 µM (inactive) | > 100 µM (inactive) | > 100 µM (inactive) | > 100 µM (inactive) |  | 
2 | C/C(=N/NC(=S)Nc1ccc(Cl)cc1)c1cccc(/C(C)=N\NC(=S)Nc2ccc(Cl)cc2)n1 | 3.66 µM (inactive) | 5.55 µM (inactive) | 3.49 µM (inactive) | 4.29 µM (inactive) | 4.12 µM (inactive) | 1.93 µM (inactive) | 4.01 µM (inactive) | 2.34 µM (inactive) | 1.79 µM (inactive) | 12.3 µM (inactive) | 5.45 µM (inactive) | 4.74 µM (inactive) | 12.2 µM (inactive) | 2.9 µM (inactive) | 7.6 µM (inactive) | 10.2 µM (inactive) | 1.48 µM (inactive) | 5.92 µM (inactive) | 6.3 µM (inactive) | 
3 | O=C(CCc1cc(O)cc(O)c1)NCCc1cc(O)cc(OCc2ccccc2)c1 | 34 µM (inactive) | 42.3 µM (inactive) | 20.4 µM (inactive) | 36.5 µM (inactive) | 72.1 µM (inactive) | 32.6 µM (inactive) | 37 µM (inactive) | 28.9 µM (inactive) | 35.8 µM (inactive) | 36.2 µM (inactive) | 57.3 µM (inactive) | 35.8 µM (inactive) | 20.5 µM (inactive) | 35.7 µM (inactive) | 59.4 µM (inactive) | 29 µM (inactive) | 36.7 µM (inactive) | 22.2 µM (inactive) | 41.8 µM (inactive) | 
4 | CC(=O)OCC1OC(OCCCOP(=S)(OCCC#N)OCC2OC(n3ccc(N)nc3=O)C(OC(=O)c3ccccc3)C2OC(=O)c2ccccc2)C(OC(C)=O)C(OC(C)=O)C1OC(C)=O (configuration not stated) | > 100 µM (inactive) | > 100 µM (inactive) | > 100 µM (inactive) | > 100 µM (inactive) | > 100 µM (inactive) | 46.6 µM (inactive) | > 100 µM (inactive) | > 100 µM (inactive) | > 100 µM (inactive) | > 100 µM (inactive) | > 100 µM (inactive) | > 100 µM (inactive) | > 100 µM (inactive) | > 100 µM (inactive) | > 100 µM (inactive) | > 100 µM (inactive) | > 100 µM (inactive) | > 100 µM (inactive) | > 100 µM (inactive) | 
5 | COc1ccc(/C=C2\C=Cc3ccccc32)cc1OC | > 100 µM (inactive) | > 100 µM (inactive) | > 100 µM (inactive) | 30.4 µM (inactive) | > 100 µM (inactive) | > 100 µM (inactive) | 50.4 µM (inactive) | 38.6 µM (inactive) | > 100 µM (inactive) | > 100 µM (inactive) | 22.5 µM (inactive) |  | > 100 µM (inactive) | 91.2 µM (inactive) | 76.2 µM (inactive) | 88.3 µM (inactive) | > 100 µM (inactive) |  | 76 µM (inactive) | 10.9 µM (inactive)
6 | OC1CC(O)c2c(Cl)sc(Cl)c21 (configuration not stated) | 27 µM (inactive) | 11.7 µM (inactive) | 21.8 µM (inactive) | 23 µM (inactive) | 44.2 µM (inactive) | 31.1 µM (inactive) | < 0.01 µM (active) | 51.5 µM (inactive) | 35.2 µM (inactive) | 32 µM (inactive) | 5.21 µM (inactive) |  |  | 31.4 µM (inactive) | 27.4 µM (inactive) | 17.5 µM (inactive) | > 100 µM (inactive) | 28.2 µM (inactive) | 15.5 µM (inactive) | 30.5 µM (inactive)
7 | COc1cc(Cc2nccc3cc(OC)c(OC)cc23)c(C(C)=O)cc1OC | 160 µM (inactive) | > 300 µM (inactive) |  | 10.2 µM (inactive) |  | 144 µM (inactive) | 189 µM (inactive) |  | 187 µM (inactive) | 61 µM (inactive) | 205 µM (inactive) |  | 80.7 µM (inactive) |  | 128 µM (inactive) | 199 µM (inactive) | > 94.8 µM (inactive) | > 139 µM (inactive) | 2.54 µM (inactive) | 59.7 µM (inactive)
8 | COc1cc(OC)c2nc(C)c3c(c2c1)NCC3 |  | 11.8 µM (inactive) | 3.33 µM (inactive) | 7.73 µM (inactive) | 4.42 µM (inactive) | 3.94 µM (inactive) | 4.48 µM (inactive) |  | 11.6 µM (inactive) | 10 µM (inactive) |  |  | 7.83 µM (inactive) | 3.47 µM (inactive) | 14.3 µM (inactive) | 4.05 µM (inactive) | 4.32 µM (inactive) | 8.73 µM (inactive) | 9.35 µM (inactive) | 15.7 µM (inactive)
9 | Cc1ccc(O)c(C2=CC3=NNC(=O)C3C(c3cccc(Br)c3)C2)c1 (configuration not stated) | 14.9 µM (inactive) | 23 µM (inactive) | 22.4 µM (inactive) |  | 27.7 µM (inactive) | 11.4 µM (inactive) | 14.2 µM (inactive) | 30.9 µM (inactive) | 36.9 µM (inactive) | 23.9 µM (inactive) | 25.9 µM (inactive) | 22.1 µM (inactive) | 14.7 µM (inactive) | 21 µM (inactive) | 14.6 µM (inactive) | 23.8 µM (inactive) | 29.4 µM (inactive) | 57.3 µM (inactive) | 21.7 µM (inactive) | 25.4 µM (inactive)
10 | CC(=O)N1N=C(c2ccc3ccccc3c2O)CC1c1ccc(Cl)cc1Cl (configuration not stated) | 46.2 µM (inactive) | 25.1 µM (inactive) | 12.3 µM (inactive) | 25.7 µM (inactive) | 26.9 µM (inactive) | 13.2 µM (inactive) | 30.3 µM (inactive) | 7.67 µM (inactive) | 27.2 µM (inactive) | 25.4 µM (inactive) |  | 17.3 µM (inactive) | > 100 µM (inactive) | 16.7 µM (inactive) | > 100 µM (inactive) | 28.7 µM (inactive) | 18.1 µM (inactive) | > 100 µM (inactive) | 18.3 µM (inactive) | 
11 | NNC(=O)c1nn[nH]c1SSc1[nH]nnc1C(=O)NN | > 100 µM (inactive) | > 100 µM (inactive) | > 100 µM (inactive) | > 100 µM (inactive) | > 100 µM (inactive) | > 100 µM (inactive) | > 100 µM (inactive) | > 100 µM (inactive) | > 100 µM (inactive) | > 100 µM (inactive) | > 100 µM (inactive) |  | > 100 µM (inactive) | > 100 µM (inactive) | > 100 µM (inactive) | > 100 µM (inactive) | > 100 µM (inactive) | > 100 µM (inactive) | > 100 µM (inactive) | > 100 µM (inactive)
12 | CCCCCCOC(=O)C(N)Cc1ccc(OC)cc1 (configuration not stated) | > 100 µM (inactive) | > 100 µM (inactive) | > 100 µM (inactive) | > 100 µM (inactive) | > 100 µM (inactive) | > 100 µM (inactive) | > 100 µM (inactive) | > 100 µM (inactive) | > 100 µM (inactive) | > 100 µM (inactive) | > 100 µM (inactive) |  |  | > 100 µM (inactive) | > 100 µM (inactive) | > 100 µM (inactive) | > 100 µM (inactive) | > 100 µM (inactive) | > 100 µM (inactive) | > 100 µM (inactive)
13 | CCOC(=O)c1ccc2nc3n(c2c1)C(c1c(F)cccc1F)SC3 (configuration not stated) | 81.8 µM (inactive) | 79.1 µM (inactive) | > 100 µM (inactive) |  | > 100 µM (inactive) | 56.8 µM (inactive) | 24.9 µM (inactive) | > 100 µM (inactive) | > 100 µM (inactive) | > 100 µM (inactive) | 29.9 µM (inactive) | > 100 µM (inactive) | > 100 µM (inactive) | 50.4 µM (inactive) | > 100 µM (inactive) | > 100 µM (inactive) | > 100 µM (inactive) | > 100 µM (inactive) | > 100 µM (inactive) | > 100 µM (inactive)
14 | c1ccc(B2OCC(C3OB(c4ccccc4)OC4COB(c5ccccc5)OC43)O2)cc1 (configuration not stated) | > 100 µM (inactive) | > 100 µM (inactive) | > 100 µM (inactive) | 24.5 µM (inactive) | > 100 µM (inactive) | > 100 µM (inactive) | > 100 µM (inactive) | > 100 µM (inactive) | > 100 µM (inactive) | > 100 µM (inactive) | > 100 µM (inactive) | > 100 µM (inactive) |  | > 100 µM (inactive) | > 100 µM (inactive) | > 100 µM (inactive) | > 100 µM (inactive) | > 100 µM (inactive) | > 100 µM (inactive) | 
15 | O=C(/C=C/c1ccc(O)c(O)c1)OCCCOC(=O)/C=C/c1ccc(O)c(O)c1 | 33.3 µM (inactive) | 31.3 µM (inactive) | 21.8 µM (inactive) | 11.6 µM (inactive) | 11.4 µM (inactive) | 30.6 µM (inactive) | 26.8 µM (inactive) | 10.9 µM (inactive) | 19.2 µM (inactive) | 30.2 µM (inactive) | 33.4 µM (inactive) | 17.4 µM (inactive) | 38.9 µM (inactive) | 18.2 µM (inactive) | 27.2 µM (inactive) | 22.3 µM (inactive) | 41.9 µM (inactive) | 7.13 µM (inactive) | 23.5 µM (inactive) | 
